Measurements: PubChem BioAssay (NCI)
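96-well plates; 48 h exposure; 5 concentrations. Endpoints by linear interpolation between flanking doses. Not reached: highest tested concentration assigned. TGI denotes the concentration required for complete inhibition of growth.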

Columns and labels:
Assay in all cases: DTP human tumour cell line panel, 48 h
[1] = tested on: A498 renal
[2] = tested on: BT-549 breast
[3] = tested on: EKVX NSCLC
[4] = tested on: HT29 colon
[5] = tested on: KM12 colon
[6] = tested on: OVCAR-3 ovarian
[7] = tested on: OVCAR-5 ovarian
[8] = tested on: OVCAR-8 ovarian
[9] = tested on: SK-MEL-28 melanoma
[10] = tested on: SK-MEL-5 melanoma
[11] = tested on: SN12C renal

Structure (SMILES)	TGI [1] [µM]	TGI [2] [µM]	TGI [3] [µM]	TGI [4] [µM]	TGI [5] [µM]	TGI [6] [µM]	TGI [7] [µM]	TGI [8] [µM]	TGI [9] [µM]	TGI [10] [µM]	TGI [11] [µM]
O=C(c1ccc([N+](=O)[O-])cc1)N1CCCC1	> 100	> 100	> 100	> 100	> 100	> 100	> 100	> 100	> 100	> 100	> 100
CC(=O)Oc1ccc2c(-c3ccccc3)c(Oc3ccc(Cl)cc3)c(=O)oc2c1	30.8	32.9	29	39.8	27.5	28.8	32.4	36.8	31.6	32.6	39.2
Cc1c(C(=O)NNc2ccccc2)n2c(=S)[nH]nc2c2ccccc12	> 100	> 100	> 100	> 100	> 100	> 100	> 100	> 100	> 100	> 100	> 100
C=C1C[C@@H]2O[C@H]3[C@H]4[C@@H](C[C@@H](C)[C@@H](OC(C)=O)[C@H]42)[C@@H](C)CO[C@@]3(C)[C@H](OC(=O)CCCCCCC)CC1=O	32.5	36.9	32.9	> 100	26.2	32	21.1	30.9	28.7	28.4	30.2
CC1(C)OCC(C2OC(C)(C)OC2[C@H]2O[C@@]3(O)[C@H]4[C@H](C=CC[C@@H]42)[C@@H](OCc2ccccc2)[C@H](OCc2ccccc2)[C@H]3OCc2ccccc2)O1 (stereo not given in full)	> 100	> 100	> 100	71.3	> 100	> 100	> 100	> 100	> 100	> 100	> 100
CCc1nc2c(c(N(C)C)c1C(=O)OC)CCc1ccccc1-2	75.3	> 100	> 100	> 100	> 100	35.4	> 100	> 100	> 100	32.9	> 100
NCCCCNCCCN1CCOC1=O	> 100	> 100	> 100	> 100	> 100	> 100	> 100	> 100	> 100	> 100	> 100
Cc1cc(-c2cc(C(C)(C)C)c(O)c(C(C)(C)C)c2)c(C)cc1-c1cc(C(C)(C)C)c(O)c(C(C)(C)C)c1	92.7	> 100	> 100	> 100	> 100	> 100	> 100	> 100	> 100	> 100	> 100
COc1ccc(-c2cc3cc(Cl)cc(Cl)c3oc2=O)cc1OC	> 100	> 100	> 100	> 100	> 100	> 100	> 100	> 100	> 100	> 100	> 100
CN(C)CCNCCCNc1c2ccccc2nc2cccc([N+](=O)[O-])c12	0.0588	0.624	0.0617	< 0.0277	0.111	0.0466	0.0543	0.0532	0.442	0.0507	0.279
CC(C)=CCC[C@@H](C)C1=C(Nc2ccccc2F)C(O)=C(C)C(=O)C1=O	> 43.9	> 100	> 100	24.3	19.4	> 100	> 100	> 30.2	> 64.3	14.8	> 100
COc1ccc(C2c3cc4c(cc3OC(Nc3ccccc3)C2C)OCO4)cc1 (stereo not given)	> 100	> 100	98.7	> 100	> 100	> 100	> 100		> 100	> 100	> 100
N#Cc1c(-c2ccc([N+](=O)[O-])cc2)c(C#N)c(=O)n(NS(=O)(=O)c2ccccc2)c1O	> 100	> 100	> 100	> 100		> 100	> 100	> 100	> 100	> 100	> 100
O=c1c2cc([N+](=O)[O-])ccc2oc2nc3n(c(=O)c12)CCCS3	> 100	> 100	> 100		> 100	> 100	> 100		> 100	> 100	> 100
CO[P@@]1(=O)O[C@@H](c2ccccc2)[C@H](O)[C@]1(O)c1ccccc1	> 100	> 100	60.4	> 100	> 100	> 100		> 100	> 100	> 100	> 100
CC(=N/NC(=S)N(C)C)/C(=N\NC(=S)N(C)C)c1ccccc1	3.12	4.63	3.56	9.46	4.44	3.68	5.03		4.03	3.14	3.24
